Columns and labels:
[1] = target: T1, TANK binding kinase (TBK1) (Homo sapiens, UniProt Q9UHD2); experiment: TBK1 enzyme assay (384-well Flashplate kinase assay); assay type: biochemical; settings: 10 μM ATP, 120 Min at 30° C.
T1 sequence (Q9UHD2 1-729): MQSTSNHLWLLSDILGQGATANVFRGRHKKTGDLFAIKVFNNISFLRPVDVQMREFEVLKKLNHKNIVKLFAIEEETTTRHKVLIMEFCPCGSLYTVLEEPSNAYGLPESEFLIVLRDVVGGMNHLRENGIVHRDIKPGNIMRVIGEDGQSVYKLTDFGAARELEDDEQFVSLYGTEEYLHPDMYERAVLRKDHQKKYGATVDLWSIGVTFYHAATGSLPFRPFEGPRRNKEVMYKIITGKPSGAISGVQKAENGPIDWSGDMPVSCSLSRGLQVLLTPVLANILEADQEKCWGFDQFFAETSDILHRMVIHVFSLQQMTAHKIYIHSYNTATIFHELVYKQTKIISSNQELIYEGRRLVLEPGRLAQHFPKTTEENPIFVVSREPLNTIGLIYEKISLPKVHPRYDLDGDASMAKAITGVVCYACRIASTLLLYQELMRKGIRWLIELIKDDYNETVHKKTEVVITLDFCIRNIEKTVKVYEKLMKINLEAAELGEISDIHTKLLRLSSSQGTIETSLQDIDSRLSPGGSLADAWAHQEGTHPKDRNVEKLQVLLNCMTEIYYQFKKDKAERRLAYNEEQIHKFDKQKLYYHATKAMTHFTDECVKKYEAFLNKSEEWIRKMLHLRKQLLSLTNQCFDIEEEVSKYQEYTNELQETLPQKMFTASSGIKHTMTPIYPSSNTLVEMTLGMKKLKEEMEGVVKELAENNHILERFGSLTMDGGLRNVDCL
Experimental: The kinase assay is performed as 384-well Flashplate assay (for e.g. Topcount measurement.
0.6 nM TANK binding kinase (TBK1), 800 nM biotinylated MELK-derived peptide (Biotin-Ah-Ah-[…]) and 10 μM ATP (spiked with 0.25 μCi ^33P-ATP/well) are incubated in a total volume of 50 μl (10 mM MOPS, 10 mM Mg-acetat, 0.1 mM EGTA, 1 mM DTT, 0.02% Brij35, 0.1% BSA, pH 7.5) with or without test compound for 120 Min at 30° C. The reaction is stopped with 25 μl 200 mM EDTA. After 30 Min at room temperature the liquid is removed and each well washed thrice with 100 μl 0.9% sodium chloride solution. Nonspecific reaction is determined in presence of 100 nM Staurosporine. Radioactivity is measured in a Topcount (PerkinElmer). Results (e.g. IC50-values) are calculated with program tools provided by the IT-department (e.g. AssayExplorer, Symyx).

IKKε = target: T2, IKKε (Homo sapiens, UniProt Q14164); experiment: IKKε kinase assay (384-well Flashplate); assay type: biochemical; settings: 10 μM ATP, 2 hours at 30° C.; read-out: IKKε enzyme assay IC50
T2 sequence (Q14164 1-716): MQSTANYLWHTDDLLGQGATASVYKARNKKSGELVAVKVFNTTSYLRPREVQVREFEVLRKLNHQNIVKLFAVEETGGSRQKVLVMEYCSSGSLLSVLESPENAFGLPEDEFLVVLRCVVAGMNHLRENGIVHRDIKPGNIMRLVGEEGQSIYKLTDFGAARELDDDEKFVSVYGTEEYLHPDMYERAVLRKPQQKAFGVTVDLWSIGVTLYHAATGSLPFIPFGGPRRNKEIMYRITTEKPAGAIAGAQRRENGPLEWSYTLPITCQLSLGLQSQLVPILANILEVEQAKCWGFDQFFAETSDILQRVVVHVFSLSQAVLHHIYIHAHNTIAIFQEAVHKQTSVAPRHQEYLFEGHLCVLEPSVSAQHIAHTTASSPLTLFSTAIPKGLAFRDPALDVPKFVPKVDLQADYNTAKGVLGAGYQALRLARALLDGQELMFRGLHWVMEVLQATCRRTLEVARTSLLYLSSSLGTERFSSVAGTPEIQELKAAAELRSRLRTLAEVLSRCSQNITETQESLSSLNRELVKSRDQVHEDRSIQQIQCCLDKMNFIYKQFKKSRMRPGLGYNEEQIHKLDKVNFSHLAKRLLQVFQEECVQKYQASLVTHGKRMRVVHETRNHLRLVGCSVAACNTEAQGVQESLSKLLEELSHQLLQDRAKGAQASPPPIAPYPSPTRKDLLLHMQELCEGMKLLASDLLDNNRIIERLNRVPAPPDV
Experimental: The kinase assay is performed either as 384-well Flashplate assay (for e.g. Topcount measurement).
1 nM IKKε, 800 nM biotinylated IκBα(19-42) peptide (Biotin-C6-C6-[…]) and 10 μM ATP (spiked with 0.3 μCi ^33P-ATP/well) are incubated in a total volume of 50 μl (10 mM MOPS, 10 mM Mg-acetat, 0.1 mM EGTA, 1 mM Dithiothreitol, 0.02% Brij35, 0.1% BSA, 0.1% BioStab, pH 7.5) with or without test compound for 2 hours at 30° C. The reaction is stopped with 25 μl 200 mM EDTA. After 30 Min at room temperature the liquid is removed and each well washed thrice with 100 μl 0.9% sodium chloride solution. […] Radioactivity is measured with Topcount (PerkinElmer). Results (e.g. IC50-values) are calculated with program tools provided by the IT-department (e.g. AssayExplorer, Symyx).

| Structure (SMILES) | IC50 [1] [nM] | IC50 (IKKε) [nM] |
| --- | --- | --- |
| N#Cc1cc(-c2ccnc3cc(-c4ccc(C(=O)N5CCNCC5)cc4F)oc23)ccc1OC1CCOCC1 [Compound A111] | < 300 | < 300 |
| COc1cc(-c2cc3nccc(-c4ccc(OC5CCOCC5)c(C#N)c4)c3o2)ccc1C(=O)N(C)C1CCOCC1 [Compound A102] | < 300 | < 300 |
| N#Cc1cc(-c2ccnc3cc(-c4ccc(N5CCOCC5)nc4)oc23)ccc1OC1CCOCC1 [Compound A56] | < 300 | < 300 |
| N#Cc1cc(-c2ccnc3cc(-c4ccc(CN5CCOCC5)s4)oc23)ccc1OC1CCOCC1 [Compound A47] | < 300 | < 300 |
| N#Cc1cc(-c2ccnc3cc(-c4ccc(C(=O)NCCN5CCCC5)cc4)oc23)ccc1OC1CCOCC1 [Compound A78] | < 300 | < 300 |
| N#Cc1cc(-c2ccnc3cc(-c4cnn(C5CCN(CCO)CC5)c4)oc23)ccc1OC1CCOCC1 [Compound A67] | < 300 | < 300 |
| CN(CCO)C(=O)c1ccc(-c2cc3nccc(-c4ccc(OC5CCOC5)c(C#N)c4)c3o2)cc1 (centres unmarked) [Compound A63] | < 300 | < 300 |
| CCN(CCN(C)C)C(=O)c1ccc(-c2cc3nccc(-c4ccc(OC5CCOCC5)c(C#N)c4)c3o2)cc1OC [Compound A31, 4-{7-[3-cyano-4-(tetrahydro-pyran-4-yloxy)-phenyl]-furo[3,2-b]pyridin-2-yl}-N-(2-dimethylamino-ethyl)-N-ethyl-2-methoxy-benzamide] | < 300 | < 300 |
| CN(C)CCN(C)C(=O)c1ccc(-c2cc3nccc(-c4ccc(OC5CCOCC5)c(C#N)c4)c3o2)cc1 [Compound A28, 4-{7-[3-cyano-4-(tetrahydro-pyran-4-yloxy)-phenyl]-furo[3,2-b]pyridin-2-yl}-N-(2-dimethylamino-ethyl)-N-methyl-benzamide] | < 300 | < 300 |
| CN1CCN(c2ccc(-c3cc4nccc(-c5ccc(OC6CCOCC6)c(C#N)c5)c4o3)cc2)CC1 [Compound A10, 5-{2-[4-(4-methyl-piperazin-1-yl)-phenyl]-furo[3,2-b]pyridin-7-yl}-2-(tetrahydro-pyran-4-yloxy)-benzonitrile] | < 300 | < 300 |
| COc1cc(-c2cc3nccc(-c4ccc(OC5CCOCC5)c(C#N)c4)c3o2)ccc1C(=O)N[C@@H]1CCCNC1 [Compound A106] | < 300 | < 300 |
| COc1cc(-c2cc3nccc(-c4ccc(OC5CCOCC5)c(C#N)c4)c3o2)ccc1C(=O)N1CCNC(=O)C1 [Compound A109] | < 300 | < 300 |
| N#Cc1cc(-c2ccnc3cc(-c4cnn(C5CCNCC5)c4)oc23)ccc1OC1CCOCC1 [Compound A36, 4-(4-{7-[3-Cyano-4-(tetrahydro-pyran-4-yloxy)-phenyl]-furo[3,2-b]pyridin-2-yl}-pyrazol-1-yl)-piperidin] | < 300 | < 300 |
| N#Cc1cc(-c2ccnc3cc(-c4ccc(C(=O)NCCN5CCOCC5)cc4)oc23)ccc1OC1CCOCC1 [Compound A79] | < 300 | < 300 |
| N#Cc1cc(-c2ccnc3cc(-c4ccc(C(=O)NC5COc6ccccc6C5)cc4)oc23)ccc1OC1CCOCC1 (centres unmarked) [Compound A82] | 300 to 3000 | 300 to 3000 |
| N#Cc1cc(-c2ccnc3cc(-c4cnn(C5CCN(CCCO)CC5)c4)oc23)ccc1OC1CCOCC1 [Compound A69] | < 300 | < 300 |

Results, then the compound that gave them:

| IC50 [1] [nM] | IC50 (IKKε) [nM] | Structure (SMILES) |
| --- | --- | --- |
| 3000 to 50000 | 300 to 3000 | COCCn1cc(-c2cc3nccc(-c4ccc(OC5CCOCC5)c(C#N)c4)c3o2)cn1 [Compound A8, 5-{2-[1-(2-methoxy-ethyl)-1H-pyrazol-4-yl]-furo[3,2-b]pyridin-7-yl}-2-(tetrahydro-pyran-4-yloxy)-benzonitrile] |
| < 300 | < 300 | COc1cc(C(=O)N[C@@H]2CCCNC2)ccc1-c1cc2nccc(-c3ccc(OC4CCOCC4)c(C#N)c3)c2o1 [Compound A120] |
| 3000 to 50000 | 3000 to 50000 | N#Cc1cc(-c2ccnc3cc(-c4ccc5[nH]c(=O)[nH]c5c4)oc23)ccc1OC1CCOCC1 [Compound A14, 5-[2-(2-oxo-2,3-dihydro-1H-benzoimidazol-5-yl)-furo[3,2-b]pyridin-7-yl]-2-(tetrahydro-pyran-4-yloxy)-benzonitrile] |
| < 300 | < 300 | COc1cc(-c2cc3nccc(-c4ccc(OC5CCOCC5)c(C#N)c4)c3o2)ccc1C(=O)N1CC2(COC2)C1 [Compound A30, 5-{2-[3-methoxy-4-(2-oxa-6-aza-spiro[3.3]heptane-6-carbonyl)-phenyl]-furo[3,2-b]pyridin-7-yl}-2-(tetrahydro-pyran-4-yloxy)-benzonitrile] |
| < 300 | < 300 | COCCN(C)C(=O)c1ccc(-c2cc3nccc(-c4ccc(OC5CCOCC5)c(C#N)c4)c3o2)cc1 [Compound A26, 4-{7-[3-cyano-4-(tetrahydro-pyran-4-yloxy)-phenyl]-furo[3,2-b]pyridin-2-yl}-N-(2-methoxy-ethyl)-N-methyl-benzamide] |
| < 300 | < 300 | CCN(CCOC)C(=O)c1ccc(-c2cc3nccc(-c4ccc(OC5CCOCC5)c(C#N)c4)c3o2)cc1 [Compound A3, 4-{7-[3-cyano-4-(tetrahydro-pyran-4-yloxy)-phenyl]-furo[3,2-b]pyridin-2-yl}-N-ethyl-N-(2-methoxy-ethyl)-benzamide] |
| < 300 | < 300 | COc1cc(-c2cc3nccc(-c4ccc(OC5CCOCC5)c(C#N)c4)c3o2)ccc1C(=O)N1CC[C@@H](O)C1 [Compound A98] |
| 3000 to 50000 | 3000 to 50000 | N#Cc1cc(-c2ccnc3cc(-c4ccc(C(N)=O)cc4)oc23)ccc1OC1CCOCC1 [Compound A18, 4-{7-[3-cyano-4-(tetrahydro-pyran-4-yloxy)-phenyl]-furo[3,2-b]pyridin-2-yl}-benzamide] |
| 300 to 3000 | < 300 | Cc1occc1-c1cc2nccc(-c3ccc(OC4CCOCC4)c(C#N)c3)c2o1 [Compound A55] |
| < 300 | < 300 | N#Cc1cc(-c2ccnc3cc(-c4cccc5[nH]ccc45)oc23)ccc1OC1CCOCC1 [Compound A58] |
| < 300 | < 300 | COc1ccccc1-c1cc2nccc(-c3ccc(OC4CCOCC4)c(C#N)c3)c2o1 [Compound A5, 5-[2-(2-methoxy-phenyl)-furo[3,2-b]pyridin-7-yl]-2-(tetrahydro-pyran-4-yloxy)-benzonitrile] |
| < 300 | < 300 | COc1cc(C(=O)N(C)C)ccc1-c1cc2nccc(-c3ccc(OC4CCOCC4)c(C#N)c3)c2o1 [Compound A117] |

— US9045493B2, “Furo[3,2-b]- and thieno[3,2-b]pyridin derivatives” (Merck Patent GmbH, priority 2012, dated 2015)
